Measurements published in US20230117606A1, “COMPOSITIONS AND METHODS FOR THE TREATMENT OF INTRACELLULAR BACTERIAL INFECTIONS” (Endolytix Technology, Inc., priority 2020, published 2023).

These compounds were tested on M. abscessus (assay: Cell growth assay of M. abscessus with ABIα and antibiotic, Fractional Inhibitory Concentration (FIC) index). Settings: antibiotic in combination with ABIα; FIG. 5.
Type: cell-based, Mycobacterium abscessus

SMILES | effect by FIC index on attenuation of M. abscessus growth
NCC[C@H](O)C(=O)N[C@@H]1C[C@H](N)[C@@H](O[C@H]2O[C@H](CN)[C@@H](O)[C@H](O)[C@H]2O)[C@H](O)[C@H]1O[C@H]1O[C@H](CO)[C@@H](O)[C@H](N)[C@H]1O [amikacin] | synergistic effects
CO[C@@]1(NC(=O)Cc2cccs2)C(=O)N2C(C(=O)O)=C(COC(N)=O)CS[C@@H]21 [cefoxitin] | synergistic effects
C[C@@H](O)[C@H]1C(=O)N2C(C(=O)[O-])=C(SC3Cn4cnc[n+]4C3)[C@H](C)[C@H]12 (stereo partly drawn) [biapenem] | synergistic effects
